From PubChem BioAssay AID1259407 (Chemical Carcinogenesis Research Information System (CCRIS), 2018)
Active and inactive are the calls of the source. How the calls were made is not given here.

System: CCRIS mutagenicity, Ames/micronucleus/aberration tests
Assay: CCRIS mutagenicity studies
[1] = Test System: AMES SALMONELLA TYPHIMURIUM, Strain/Indicator: TA98, Metabolic Activation: NONE, Method: STANDARD PLATE
[2] = Test System: AMES SALMONELLA TYPHIMURIUM, Strain/Indicator: TA102, Metabolic Activation: NONE, Method: STANDARD PLATE

With `Cc1ccc(N=C=O)cc1N=C=O` as the compound, how does the mutagenic call (End Point: IN VITRO CHROMOSOMAL ABERRATIONS, Test System: CHL CELLS, Metabolic Activation: RAT, LIVER, S-9, SODIUM PHENOBARBITAL AND 5,6-BENZOFLAVONE) read?
Its mutagenic call is “inactive; negative; authors report equivocal results for ploidy changes at the highest dos”.

What about the mutagenic call (End Point: IN VITRO CHROMOSOMAL ABERRATIONS, Test System: CHO CELLS, Metabolic Activation: RAT, LIVER, S-9, AROCLOR 1254) of the same compound?
Its mutagenic call is “inactive; negative; precipitation occurred at 500 and 750 ug/ml”.

And the mutagenic call (Test System: AMES SALMONELLA TYPHIMURIUM, Strain/Indicator: TA97, Metabolic Activation: HAMSTER, LIVER, S-9, AROCLOR 1254 (10%), Method: PREINCUBATION)?
Its mutagenic call is “inactive; negative”.

What about the mutagenic call (Test System: AMES SALMONELLA TYPHIMURIUM, Strain/Indicator: TA97, Metabolic Activation: NONE, Method: PREINCUBATION) of the same compound?
The mutagenic call was “inactive; negative”.

And the mutagenic call (Test System: AMES SALMONELLA TYPHIMURIUM, Strain/Indicator: TA97, Metabolic Activation: RAT, LIVER, S-9, AROCLOR 1254 (10%), Method: PREINCUBATION)?
Its mutagenic call is “inactive; negative”.

And the mutagenic call (Test System: AMES SALMONELLA TYPHIMURIUM, Strain/Indicator: TA98, Metabolic Activation: HAMSTER, LIVER, S-9, AROCLOR 1254 (10%), Method: PREINCUBATION)?
Its mutagenic call is “active; positive”.

What about the mutagenic call (Test System: AMES SALMONELLA TYPHIMURIUM, Strain/Indicator: TA98, Metabolic Activation: NONE, Method: PREINCUBATION) of the same compound?
Its mutagenic call is “inactive; negative”.

What about the mutagenic call (Test System: AMES SALMONELLA TYPHIMURIUM, Strain/Indicator: TA98, Metabolic Activation: RAT LIVER S-9, AROCLOR 1254 (10 OR 30%), Method: STANDARD PLATE) of the same compound?
The mutagenic call was “active; positive”.

And the mutagenic call (Test System: AMES SALMONELLA TYPHIMURIUM, Strain/Indicator: TA98, Metabolic Activation: RAT LIVER S-9, PHENOBARBITAL AND BETA-NAPHTHOFLAVONE, Method: PREINCUBATION)?
Its mutagenic call is “inactive; negative”.

What about the mutagenic call (Test System: AMES SALMONELLA TYPHIMURIUM, Strain/Indicator: TA98, Metabolic Activation: RAT, LIVER, S-9, AROCLOR 1254 (10%), Method: PREINCUBATION) of the same compound?
Its mutagenic call is “active; positive”.

What about the mutagenic call (Test System: AMES SALMONELLA TYPHIMURIUM, Strain/Indicator: TA100, Metabolic Activation: HAMSTER, LIVER, S-9, AROCLOR 1254 (10%), Method: PREINCUBATION) of the same compound?
Its mutagenic call is “active; positive”.

And the mutagenic call (Test System: AMES SALMONELLA TYPHIMURIUM, Strain/Indicator: TA100, Metabolic Activation: NONE, Method: PREINCUBATION)?
Its mutagenic call is “inactive; negative”.

And the mutagenic call (Test System: AMES SALMONELLA TYPHIMURIUM, Strain/Indicator: TA100, Metabolic Activation: RAT, LIVER, S-9, AROCLOR 1254 (10%), Method: PREINCUBATION)?
Its mutagenic call is “active; positive”.

What about the mutagenic call (Test System: AMES SALMONELLA TYPHIMURIUM, Strain/Indicator: TA1535, Metabolic Activation: HAMSTER, LIVER, S-9, AROCLOR 1254 (10%), Method: PREINCUBATION) of the same compound?
The mutagenic call was “inactive; negative”.

And the mutagenic call (Test System: AMES SALMONELLA TYPHIMURIUM, Strain/Indicator: TA1535, Metabolic Activation: NONE, Method: PREINCUBATION)?
The mutagenic call was “inactive; negative”.

And the mutagenic call (Test System: AMES SALMONELLA TYPHIMURIUM, Strain/Indicator: TA1535, Metabolic Activation: RAT LIVER S-9, PHENOBARBITAL AND BETA-NAPHTHOFLAVONE, Method: PREINCUBATION)?
Its mutagenic call is “inactive; negative”.

What about the mutagenic call (Test System: AMES SALMONELLA TYPHIMURIUM, Strain/Indicator: TA1535, Metabolic Activation: RAT, LIVER, S-9, AROCLOR 1254 (10%), Method: PREINCUBATION) of the same compound?
Its mutagenic call is “inactive; negative”.

What about the mutagenic call (Test System: AMES SALMONELLA TYPHIMURIUM, Strain/Indicator: TA1537, Metabolic Activation: NONE, Method: PREINCUBATION) of the same compound?
The mutagenic call was “inactive; negative”.

And the mutagenic call (Test System: AMES SALMONELLA TYPHIMURIUM, Strain/Indicator: TA1537, Metabolic Activation: RAT LIVER S-9, AROCLOR 1254 (10 OR 30%), Method: STANDARD PLATE)?
The mutagenic call was “active; positive”.

And the mutagenic call (Test System: AMES SALMONELLA TYPHIMURIUM, Strain/Indicator: TA1537, Metabolic Activation: RAT LIVER S-9, PHENOBARBITAL AND BETA-NAPHTHOFLAVONE, Method: PREINCUBATION)?
The mutagenic call was “inactive; negative”.

What about the mutagenic call (Test System: E.COLI, Strain/Indicator: WP2UVRA, Metabolic Activation: NONE, Method: PREINCUBATION) of the same compound?
The mutagenic call was “inactive; negative”.

And the mutagenic call (Test System: E.COLI, Strain/Indicator: WP2UVRA, Metabolic Activation: RAT LIVER S-9, PHENOBARBITAL AND BETA-NAPHTHOFLAVONE, Method: PREINCUBATION)?
Its mutagenic call is “inactive; negative”.

What about the mutagenic call (Test System: MOUSE LYMPHOMA, Strain/Indicator: L5178Y (TK+/TK-), Metabolic Activation: NONE, Method: SUSPENSION/PLATE) of the same compound?
The mutagenic call was “active; positive”.

And the mutagenic call (Test System: MOUSE LYMPHOMA, Strain/Indicator: L5178Y (TK+/TK-), Metabolic Activation: RAT, LIVER, S-9, AROCLOR 1254, Method: SUSPENSION/PLATE)?
Its mutagenic call is “active; positive”.

With `O=[N+]([O-])c1c2ccccc2c([N+](=O)[O-])c2ccccc12` as the compound, how does the mutagenic call [1] read?
Its mutagenic call is “inactive; negative”.

Which results are given for `Cc1c(N)nc([C@H](CC(N)=O)NC[C@H](N)C(N)=O)nc1C(=O)N[C@H](C(=O)N[C@H](C)[C@@H](O)[C@H](C)C(=O)N[C@H](C(=O)NCCc1nc(-c2nc(C(=O)NCCCN[C@@H](C)c3ccccc3)cs2)cs1)[C@@H](C)O)[C@@H](O[C@@H]1O[C@@H](CO)[C@@H](O)[C@H](O)[C@@H]1O[C@H]1O[C@H](CO)[C@@H](O)[C@H](OC(N)=O)[C@@H]1O)c1cnc[nH]1`?
mutagenic call [2]: active; positive; mutagenic call (Test System: AMES SALMONELLA TYPHIMURIUM, Strain/Indicator: TA1537, Metabolic Activation: NONE, Method: STANDARD PLATE): inactive; negative

How did the mutagenic call (Test System: AMES SALMONELLA TYPHIMURIUM, Strain/Indicator: TA97, Metabolic Activation: NONE, Method: STANDARD PLATE) turn out when `O=S1OC[C@@H]2[C@H](CO1)[C@]1(Cl)C(Cl)=C(Cl)[C@@]2(Cl)C1(Cl)Cl` (stereo partly drawn) was run?
Its mutagenic call is “inactive; negative”.

And the mutagenic call (Test System: AMES SALMONELLA TYPHIMURIUM, Strain/Indicator: TA97, Metabolic Activation: RAT, LIVER, S-9, AROCLOR 1254, Method: STANDARD PLATE)?
Its mutagenic call is “inactive; negative”.

What about the mutagenic call [1] of the same compound?
The mutagenic call was “inactive; negative”.

What about the mutagenic call (Test System: AMES SALMONELLA TYPHIMURIUM, Strain/Indicator: TA98, Metabolic Activation: RAT, LIVER, S-9, AROCLOR 1254, Method: STANDARD PLATE) of the same compound?
Its mutagenic call is “inactive; negative”.

And the mutagenic call (Test System: AMES SALMONELLA TYPHIMURIUM, Strain/Indicator: TA100, Metabolic Activation: NONE, Method: STANDARD PLATE)?
The mutagenic call was “inactive; negative”.

What about the mutagenic call (Test System: AMES SALMONELLA TYPHIMURIUM, Strain/Indicator: TA100, Metabolic Activation: RAT, LIVER, S-9, AROCLOR 1254, Method: STANDARD PLATE) of the same compound?
The mutagenic call was “inactive; negative”.

And the mutagenic call [2]?
Its mutagenic call is “inactive; negative”.

And the mutagenic call (Test System: AMES SALMONELLA TYPHIMURIUM, Strain/Indicator: TA102, Metabolic Activation: RAT, LIVER, S-9, AROCLOR 1254, Method: STANDARD PLATE)?
The mutagenic call was “inactive; negative”.

For `COC1=CC(=O)O[C@@H](CCc2ccc3c(c2)OCO3)C1`, which mutagenic call (Test System: Mouse lymphoma cells, Strain/Indicator: L5178Y ( tk+/tk-), Metabolic Activation: Human, Liver, S-9, Method: Suspension/plate) is on record?
The mutagenic call was “inactive; negative”.

How did the mutagenic call (Test System: AMES SALMONELLA TYPHIMURIUM, Strain/Indicator: TA100, Metabolic Activation: RAT, LIVER, MICROSOMES, PHENOBARBITAL, Method: PREINCUBATION) turn out when `ClCCC(Br)CBr` (stereo not drawn) was run?
The mutagenic call was “inactive; negative”.

And the mutagenic call (Test System: AMES SALMONELLA TYPHIMURIUM, Strain/Indicator: TA100, Metabolic Activation: RAT, LIVER, MICROSOMES, Method: PREINCUBATION)?
Its mutagenic call is “inactive; negative”.
